We go through four compounds from publication PMC11969548 (2025).

The test system of experiment [1] is P27 (DD aptagel) (DNA, aptamer) CGACCGAGGGTACCGCAATAGTACTTA/TTGTTCGCCTATTGTGGGTCGGGTCG
The experiment is described as follows: angular SPR of hydrogel film. As to conditions: PBS, 2 mM Mg2+, 200-fold diluted rat plasma, 37 °C.

Experiment [2] relates to PolyA (PA) aptagel (DNA, single strand) AAAAAAAAAAAAAAAAAAAAAAAAAAA
As to the kind of experiment: angular SPR of hydrogel film. As to conditions: PBS, 2 mM Mg2+; 37 °C; 1 mM vancomycin; 3 mM poly A, [ene]/[SH] 4.

For experiment [3], the system named is P27 (MM aptagel) (DNA, aptamer) CGACCGAGGGTACCGCAATAGTACTTA/TTGTTCGCCTATTGTGGGTCGGGTCG
As to the kind of experiment: angular SPR and QCM-D of hydrogel film. The note with it: PBS, 2 mM Mg2+; 37 °C; 1 mM vancomycin; 1 mM aptamer; reversible; smallest response.

Experiment [4] deals with P27 (DD aptagel) (DNA, aptamer) CGACCGAGGGTACCGCAATAGTACTTA/TTGTTCGCCTATTGTGGGTCGGGTCG
As to the kind of experiment: angular SPR of hydrogel film, dissociation phase fit. As to conditions: PBS, 2 mM Mg2+; pH 7.4, 37 °C; vancomycin below 50 µM; rises to 0.7 above 100 µM; apparent.

Experiment [5] relates to P27.i (monolayer) (DNA, aptamer) CGACCGAGGGTACCGCAATAGTACTTA/TTGTTCGCCTATTGCGGGTCGGGTCG
The experiment is described as follows: SPR, dissociation phase fit. The note with it: PBS, 2 mM Mg2+, pH 7.4, 37 °C, split 2 in solution, independent of analyte concentration. For orientation: SPR reads the build-up and loss of mass on a sensor chip optically.

The subject of experiment [6] is Full (full-length parent aptamer, aptagel) (DNA, aptamer) CGACCGAGGGTACCGCAATAGTACTTATTGTTCGCCTATTGTGGGTCGGGTCG
The experiment is described as follows: angular SPR and QCM-D of hydrogel film. As to conditions: PBS, 2 mM Mg2+; 37 °C; 1 mM vancomycin; 1 mM aptamer; partly irreversible.

Experiment [7] deals with P27 (MD aptagel) (DNA, aptamer) CGACCGAGGGTACCGCAATAGTACTTA/TTGTTCGCCTATTGTGGGTCGGGTCG
The experiment is described as follows: angular SPR and QCM-D of hydrogel film. The note with it: PBS, 2 mM Mg2+; 37 °C; 1 mM vancomycin; 1 mM aptamer; reversible.

Experiment [8] relates to P27 (monolayer) (DNA, aptamer) CGACCGAGGGTACCGCAATAGTACTTA/TTGTTCGCCTATTGTGGGTCGGGTCG
As to the kind of experiment: SPR, dissociation phase fit. As to conditions: PBS, 2 mM Mg2+, pH 7.4, 37 °C, split 2 in solution, independent of analyte concentration.

The mark [9] stands for this setting: concentration matching refractive index of 10 µM vancomycin.

Consider `CC1(C)S[C@@H]2[C@H](NC(=O)[C@H](N)c3ccccc3)C(=O)N2[C@H]1C(=O)O`, for which the binding entry in experiment [1] (setting [9]) is recorded as “no”.

The term koff denotes a measure of how fast the partners let go of each other. For `CN[C@H](CC(C)C)C(=O)N[C@H]1C(=O)N[C@@H](CC(N)=O)C(=O)N[C@H]2C(=O)N[C@H]3C(=O)N[C@H](C(=O)N[C@H](C(=O)O)c4cc(O)cc(O)c4-c4cc3ccc4O)[C@H](O)c3ccc(c(Cl)c3)Oc3cc2cc(c3O[C@@H]2O[C@H](CO)[C@@H](O)[C@H](O)[C@H]2O[C@H]2C[C@](C)(N)[C@H](O)[C@H](C)O2)Oc2ccc(cc2Cl)[C@H]1O`, the binding entry is “no” in experiment [2], “weak” in experiment [3], “yes” in experiment [6] and “yes” in experiment [7]. Besides, the koff is ~ 0.2 min^-1 in experiment [4], ~ 0.16 min^-1 in experiment [5] and 0.2 min⁻¹ in experiment [8].

With `CO[C@H]1/C=C/O[C@@]2(C)Oc3c(C)c(O)c4c(O)c(c(/C=N/N5CCN(C)CC5)c(O)c4c3C2=O)NC(=O)/C(C)=C\C=C\[C@H](C)[C@H](O)[C@@H](C)[C@@H](O)[C@@H](C)[C@H](OC(C)=O)[C@@H]1C`, the binding result in experiment [1] (setting [9]) was “no”.

Consider `OC[C@H]1OC(O)[C@H](O)[C@@H](O)[C@@H]1O` (stereo partly shown), for which the binding entry in experiment [1] (80 µM glucose) is “no”.
